In brackets after ≈: the same amount, converted by molar mass.
What was measured:
H 460 = test: NCI in vitro 60 human tumor cell line assay; type: cell-based; conditions: Homo sapiens, NCI-H460, 48 h, read-out: Total Growth Inhibition (TGI)
Experimental: (§3) Each test compound was screened against a battery of 60 human cell lines obtained from eight organs. In a typical procedure, the cell suspensions that were diluted according to the particular cell type and the expected target cell density (5000-40,000 cells per well based on cell growth characteristics) were added into 96-well microtiter plates. Inoculates were allowed a preincubation period of 24h at 37°C. for stabilization. Dilutions at twice the intended test concentrations were added at time zero in 100-µl aliquots to microtiter plate wells. Usually test compounds were evaluated at five 10-fold dilutions. The highest well concentration used in the test is 10^-4M. The cells are then incubated in the presence of drug (the test compound) for further 48h in 5% CO2 atmosphere and 100% humidity. At the end of this time, the adherent cells are fixed to the plate by means of trichloroacetic acid, and after a number of washes, the cell layer is treated with the protein stain Sulforhodamine B. The optical density which is proportional to protein mass, is then read by automated spectrophotometric plate readers at a wavelength of 515 nm. Readings are transferred to a microcomputer and final reports are generated using especially developed software.

[1] = Solubility by routine method; type: physicochemical; conditions: deionized water, 37°C
Experimental: 5. Solubility by routine method:
Compound was suspended in 5 ml of deionized water and heated to 37°C. for 10 min. Then, the solution was filtered and the filtrate was evaporated to drying using methanol and the solid residue was weighed.

Pharmacokinetics at MTD = type: in vivo, Swiss albino mice; conditions: mouse, ip, intraperitoneal, plasma; for AUC(0-t): DMSO:water (50:50), read-out: AUC0-1
Experimental: 3. Pharmacokinetics at MTD:
All studies were carried out in Swiss albino mice in the weight range 35-40 g. The animals were fasted overnight prior to dosage of the drug and were fed 3 hours after dosing. The animals were dosed intraperitonially as a solution in DMSO:water (50:50; v/v). Blood samples were drawn from orbital sinus at 1, 2, 4, 6 and 8 hours after administration of the dose into heparinized tubes, centrifuged at 13000 RPM for 10 min. Plasma samples were separated and analyzed by HPLC. To 50 µl of the sample, 100 µl of chilled acidified methanol was added and mixed to precipitate proteins. The sample was centrifuged at 13,000 RPM for 10 min. 100 µl of supernatant was made up to 200 µl with methanol:water (50:50; v/v) and 100 µl was injected on HPLC. Peak area of the drug was used for quantification. Calibration, control and recovery samples were prepared by spiking 50 µl of blank plasma with known amounts of the drug and processed in the same manner as the samples. (J. Natl. Cancer Inst., 1996; 88:817-824).

HT 29 = test: NCI in vitro 60 human tumor cell line assay; type: cell-based; conditions: Homo sapiens, HT-29, 48 h, read-out: Total Growth Inhibition (TGI)
HCC 2998 = test: NCI in vitro 60 human tumor cell line assay; type: cell-based; conditions: Homo sapiens, HCC 2998, 48 h, read-out: Total Growth Inhibition (TGI)
Experimental: as §3

HCT 15 = test: NCI in vitro 60 human tumor cell line assay; type: cell-based; conditions: HCT-15, 48 h, read-out: Total Growth Inhibition (TGI)
Experimental: as §3

UACC-62 = test: In vitro activity after 1 hour exposure (Sulforhodamine B); type: cell-based; conditions: Homo sapiens; UACC-62, 1 hour exposure then 48 hours drug-free
Experimental: (§1) 6. In vitro activity after 1 hour exposure:
(§2) Grow the cells in 15 ml of Complete Medium (RPM1-1640 with 10% Fetal bovine serum and 0.2% NaHCO3) for 3-5 days to obtain a cell number of 10^6 cells/flask. The medium is removed and the attached cells are washed with Phosphate Buffered Saline (PBS). 1 ml of 0.1% Trypsin-EDTA is added and incubated for 5 min at 37°C. Tap the flasks gently and add 5 ml of complete medium. Remove cell suspension and centrifuge at 2000 rpm for 5 min. Discard the supernatant and suspend the pellet in 5 ml of complete medium. Count the cell number in a haemocytometer. Dilute the cell suspension to 10,000 cells/100 µl in complete medium. Plate out 100 µl of cell suspension in each of 96 well microtitre plate and incubate for 24 hrs at 37°C. and 5% CO2. Terminate the reference blank (plated out separately) with 25 µl of 50% cold Trichloroacetic acid (TCA). Incubate for 1 hour at 4°C. Wash the plate (five times) with deionized water. Air dry and preserve the plate at 4°C. for determination of T0 value. Prepare suitable dilution of the test compound in complete medium and add 100 µl to each well to maintain the final concentration ranging between 10^-4M and 10^-8M. Incubate for 1 hr at 37°C. and 5% CO2. Centrifuge the microtitre plate at 1000 rpm for 5 min. Remove the supernatant. Wash the cells twice with 100 µl of PBS to remove the traces of test compound. Add 200 µl of complete medium to each well and incubate for 48 hours at 37°C. and 5% CO2. Terminate the cell growth with the addition of 50 µl of 50% cold TCA. Incubate the plate for 1 hr at 4°C. Wash the plates with deionized water (five times) and air dry. Add 100 µl of Sulforhodamine B solution (0.4% in 1% acetic acid) to each well. Keep at room temperature for 15 minutes. Wash (five times) with 1% acetic acid and air dry. Add 100 µl of 10mM Trizma base (Sigma), shake gently on plate shaker for 15 minutes and read the optical density at 490 nm in Spectrophotometric plate reader. (as per the protocol followed by the U.S. National Cancer Institute.

MCF-7/ADR = test: as above; type: cell-based; conditions: Homo sapiens, NCI/ADR-RES, 1 hour exposure then 48 hours drug-free
Experimental: as §1, §2

OVCAR-8 = test: as above; type: cell-based; conditions: Homo sapiens; OVCAR-8, 1 hour exposure then 48 hours drug-free
Experimental: as §1, §2

SF-268 = test: as above; type: cell-based; conditions: Homo sapiens
Experimental: as §1, §2

HOP-62 = test: as above; type: cell-based; conditions: Homo sapiens; HOP-62, 1 hour exposure then 48 hours drug-free
Experimental: as §1, §2

DU-145 = test: as above; type: cell-based; conditions: Homo sapiens; DU-145, 1 hour exposure then 48 hours drug-free
Experimental: as §1, §2

ACHN = test: as above; type: cell-based; conditions: Homo sapiens, 1 hour exposure then 48 hours drug-free
Experimental: as §1, §2

[2] = MTD in Swiss albino mice (single dose); conditions: mouse, in vivo, 14 days observation
Experimental: 1. MTD in Swiss albino mice:
Each Swiss Albino mouse is injected with a single does of the test compound on a day designated as Day 1: Doses that were tested are 400, 200, 100, 50, 25, 12.5, 8.3, 6.25 and 3.13 mg/kg body weight. […] (As per the protocol followed by the U.S. National Cancer Institute)

[3] = Solubility by HPLC method; type: physicochemical; conditions: aqueous buffer, 0.1M sodium acetate buffer pH 5.0, 24 hours, room temperature
Experimental: 4. Solubility by HPLC method:
Excess of compound was soaked in 0.5 ml of 0.1M sodium acetate buffer at pH 5.0 for 24 hours at room temperature. The solution was filtered through 0.45 micron PVDF syringe filter (Gelman Sciences). The filtrate was injected into HPLC at different volumes (10 & 20 µl). Chromatograms were recorded. Responses recorded were extrapolated from the calibration curve and the solubility of the compound was calculated. (J. Med. Chem., 1995; 38: 400)

MCF 7/ ADR = test: NCI in vitro 60 human tumor cell line assay; type: cell-based; conditions: Homo sapiens, NCI/ADR-RES, 48 h, read-out: Total Growth Inhibition (TGI)
Experimental: as §3

SMILES | IC (TGI) (H 460) [µM] | solubility at 10 min [1] [µg/mL] | AUC(0-t) (Pharmacokinetics at MTD) [µM·h] | Cmax (Pharmacokinetics at MTD) [µM] | Tmax (Pharmacokinetics at MTD) [h] | half-life (Pharmacokinetics at MTD) [h] | k el (Pharmacokinetics at MTD) [s⁻¹] | IC (TGI) (HT 29) [µM] | IC (TGI) (HCC 2998) [µM] | IC (TGI) (HCT 15) [µM] | GI50 (UACC-62) [µM] | GI50 (MCF-7/ADR) [µM] | GI50 (OVCAR-8) [µM] | GI50 (SF-268) [µM] | GI50 (HOP-62) [µM] | GI50 (DU-145) [µM] | GI50 (ACHN) [µM] | MTD at 336 h ([2]; intravenous) [mg/kg] | MTD at 336 h ([2]; ip, intraperitoneal) [mg/kg] | solubility at 24 h [3] [µg/mL] | other results
CC[C@@]1(O)C(=O)OCc2c1cc1n(c2=O)C(OCCO)c2cc3ccccc3nc2-1 (some centres unmarked) [Example 26, 5-(2'-Hydroxyethoxy)camptothecin] | 1 | 6000 (≈ 14.7 mM) | 562 ± 41.8 | 264 ± 21.9 | 1 | 1.84 ± 0.3 | 0.000106 | 46 | 10.5 | 36.3 | 0.075 | > 100 | > 100 | > 100 | > 100 | 50 | > 100 | 25 to 50 | 200 | 800 (≈ 1.96 mM) | –
CC[C@@]1(O)C(=O)OCc2c1cc1n(c2=O)C(OCC(F)(F)F)c2cc3cc(O)ccc3nc2-1 (some centres unmarked) [Example 27, 10-Hydroxy-5-trifluoroethoxycamptothecin] | 5.09 | 2000 to 3000 (≈ 4.33 to 6.49 mM) | 23.1 ± 2.7 | 7.4 ± 0.8 | 1.33 ± 0.6 | 2.38 ± 0.2 | 8.06e-05 | 2.41 | 7.67 | 20 | 9 | 60 | 75 | > 100 | 2 | 0.35 | 8 | 200 | 400 | 500 (≈ 1.08 mM) | IC (TGI) (MCF 7/ ADR): 1.25 µM

Source: patent publication EP0847397B1, “WATER-SOLUBLE C-RING ANALOGUES OF 20 (S)-CAMPTOTHECIN” (DR. REDDY'S RESEARCH FOUNDATION, priority 1996, dated 1997)
